Consider eight compounds from ChEMBL document CHEMBL1201862, “PubChem BioAssay data set” (2004).

The structures appear in SMILES notation. Structures can show the parent of a compound that is named as a salt.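 Compound exposure: 48 hours, 5 concentrations, 96-well plates. Here, GI50 denotes the concentration required for 50% inhibition of growth.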 Calls of active or inactive are those of the source. Rule as the data show it: active = GI50 up to about 1.1 µM and inactive = higher.

Among the test systems are HCC 2998; HCT-15; HOP-62; HT-29; LOX IMVI; NCI-H460; NCI/ADR-RES; RPMI-8226; SF-268; SK-OV-3; T47D; TK-10; U-251; UO-31; HCT-116; NCI-H522; SK-MEL-5; SNB-19; MDA-MB-435; SK-MEL-2.
What all share (assay): DTP human tumour cell line panel, 48 h

Consider `Cc1ccccc1Nc1nc(NNC(=O)Cc2ccccc2)nc(NNC(=O)c2ccncc2)n1`, for which the GI50 in the test on HCC 2998 is > 10 µM (inactive); with HCT-15 it was over 10 µM; in the test with HOP-62, > 10 µM (inactive); in the test with HT-29 it was > 10 µM (inactive); in the test on LOX IMVI, > 10 µM (inactive); with NCI-H460, > 10 µM (inactive). Moreover, the GI50 with NCI/ADR-RES, in the test with RPMI-8226, in the test on SF-268, with SK-OV-3, with T47D and with TK-10 was > 10 µM (inactive) in each case. For the same compound, the GI50 in the test on U-251 and in the test on UO-31 was > 10 µM (inactive) in each case.

As to `Cc1cc(=O)oc2cc(OCC(O)COC(C)C)ccc12` (centres undefined), the GI50 in the test on HCC 2998 was > 100 µM (inactive); with HCT-116, > 100 µM (inactive); in the test with HCT-15 it was over 100 µM; with HOP-62 it was > 100 µM (inactive); in the test on HT-29, > 100 µM (inactive); with LOX IMVI it was 88.3 µM (inactive). The GI50 in the test on NCI-H460, in the test on NCI-H522, with NCI/ADR-RES, with RPMI-8226, in the test on SF-268 and in the test on SK-MEL-5 was > 100 µM (inactive) each time. Also, the GI50 in the test on SK-OV-3, in the test with SNB-19, in the test with T47D, in the test on TK-10, in the test on U-251 and in the test with UO-31 was > 100 µM (inactive) each time.

As for `NC(CC(=O)O)(Cc1ccccc1)C(=O)O` (centres undefined), the GI50 in the test on HCT-116 is > 100 µM (inactive); with HCT-15 it was over 100 µM; with HOP-62 it was > 100 µM (inactive); with HT-29, > 100 µM (inactive); in the test with LOX IMVI, > 100 µM (inactive); with MDA-MB-435, > 100 µM (inactive). Further, the GI50 with NCI-H460, in the test on NCI-H522, with NCI/ADR-RES, with RPMI-8226, in the test on SK-MEL-2 and in the test on SK-MEL-5 was > 100 µM (inactive) in each case. Besides, the GI50 in the test with SK-OV-3, in the test on SNB-19, in the test on T47D, in the test with TK-10, in the test with U-251 and in the test with UO-31 was > 100 µM (inactive) throughout.

With `CCOC(=O)C(=NN(C)c1ncccc1N)C(=O)OCC`, the GI50 with HCT-116 is 26.4 µM (inactive); in the test with HCT-15, 32.9 µM; with HOP-62 it was > 100 µM (inactive); in the test with HT-29 it was 65.6 µM (inactive); in the test on LOX IMVI, 18.3 µM (inactive); with MDA-MB-435, 19.3 µM (inactive). The GI50 was > 100 µM (inactive) with NCI-H460; 53.3 µM (inactive) in the test with NCI/ADR-RES; 30.3 µM (inactive) in the test with RPMI-8226; > 100 µM (inactive) with SF-268; 29.6 µM (inactive) in the test with SK-MEL-2; 68.4 µM (inactive) with SK-MEL-5. Besides, the GI50 in the test on SK-OV-3 is > 100 µM (inactive); with SNB-19, > 100 µM (inactive); in the test on T47D, 25.9 µM (inactive); with TK-10 it was 79.3 µM (inactive); in the test with U-251 it was > 100 µM (inactive); with UO-31 it was 38.8 µM (inactive).

`COc1ccc2c(c1)C1=NCCN(CCN(C)C)c3ccc([N+](=O)[O-])c(c31)N2`: the concentration for 50% growth inhibition (GI50) was 0.116 µM (active) in the test with HCT-116; 0.395 µM in the test with HCT-15; 1.21 µM (inactive) in the test on HOP-62; 0.348 µM (active) in the test on HT-29; 0.351 µM (active) in the test on LOX IMVI; 0.627 µM (active) with MDA-MB-435. Further, the GI50 in the test on NCI-H460 is 0.354 µM (active); with NCI/ADR-RES it was 0.957 µM (active); in the test with RPMI-8226 it was 0.442 µM (active); in the test on SF-268, 0.509 µM (active); in the test with SK-MEL-2, 1.45 µM (inactive); in the test with SK-MEL-5, 0.845 µM (active). The concentration for 50% growth inhibition (GI50) in the test with SK-OV-3 was 0.259 µM (active); with SNB-19, 0.492 µM (active); with T47D, 0.156 µM (active); in the test with TK-10 it was 1.1 µM (active); in the test on U-251 it was 0.649 µM (active); in the test with UO-31, 0.735 µM (active).

In the case of `O=C1/C(=C/c2ccc3c(c2)OCO3)CCC1CN1CCOCC1` (centres undefined), the GI50 was 8.75 µM (inactive) in the test with HCC 2998; 3.25 µM (inactive) in the test on HCT-116; 2.94 µM in the test on HCT-15; 16.3 µM (inactive) with HOP-62; 5.77 µM (inactive) in the test on HT-29; 2.44 µM (inactive) in the test on LOX IMVI. The GI50 in the test with MDA-MB-435 was 14.3 µM (inactive); with NCI-H460, 17.4 µM (inactive); in the test with NCI-H522 it was 1.04 µM (active); with RPMI-8226, 0.436 µM (active); with SF-268, 10.5 µM (inactive); in the test with SK-MEL-2, 12 µM (inactive). The GI50 is 9.16 µM (inactive) with SK-MEL-5; 18.4 µM (inactive) in the test with SK-OV-3; 15.4 µM (inactive) with SNB-19; 3.98 µM (inactive) in the test with T47D; 12.4 µM (inactive) with TK-10; 7.05 µM (inactive) with U-251. Further, the GI50 with UO-31 is 15.8 µM (inactive).

On to `CC(C)=CCC[C@](C)(O[C@@H]1O[C@H](CO)[C@@H](O)[C@H](O)[C@H]1O)[C@H]1CC[C@]2(C)[C@@H]1[C@H](O)C[C@@H]1[C@@]3(C)CC[C@@H](O)C(C)(C)[C@@H]3[C@@H](O[C@@H]3O[C@H](CO)[C@@H](O)[C@H](O)[C@H]3O)C[C@]12C.C[C@@H]1O[C@@H](O[C@H]2[C@H](O[C@H]3C[C@]4(C)[C@H](C[C@H](O)[C@@H]5[C@@H]([C@@]6(C)CC[C@H](C(C)(C)O)O6)CC[C@]54C)[C@@]4(C)CC[C@H](O)C(C)(C)[C@H]34)O[C@H](CO)[C@@H](O)[C@@H]2O)[C@H](O)[C@H](O)[C@H]1O`, for which the GI50 in the test with HCC 2998 is > 100 µM (inactive); in the test with HCT-116, > 100 µM (inactive); in the test with HCT-15 it was over 100 µM; in the test with HOP-62, > 100 µM (inactive); in the test on HT-29, > 100 µM (inactive); with LOX IMVI, > 100 µM (inactive). Besides, the GI50 in the test with MDA-MB-435, in the test with NCI-H460, in the test on NCI-H522, in the test on RPMI-8226, in the test on SF-268 and in the test with SK-MEL-2 was > 100 µM (inactive) each time. In addition, the GI50 in the test on SK-MEL-5, with SK-OV-3, with SNB-19, in the test on T47D, in the test with TK-10 and in the test with U-251 was > 100 µM (inactive) each time. The GI50 in the test with UO-31 is > 100 µM (inactive).

`CN1[C@@H]2C[C@@H](OC(=O)[C@H](CO)c3ccccc3)C[C@H]1[C@@H]1O[C@@H]12` [SCOPOLAMINE HYDROBROMIDE]: the GI50 in the test on HCT-116 was > 100 µM (inactive); in the test on HCT-15, over 100 µM; with HOP-62, > 100 µM (inactive); in the test with HT-29 it was > 100 µM (inactive); with LOX IMVI, > 100 µM (inactive); with MDA-MB-435 it was > 100 µM (inactive). The GI50 in the test on NCI-H522, in the test with NCI/ADR-RES, with RPMI-8226, in the test on SK-MEL-2, in the test on SK-MEL-5 and in the test on SK-OV-3 was > 100 µM (inactive) each time. In addition, the GI50 in the test on T47D, in the test on TK-10 and in the test on UO-31 was > 100 µM (inactive) each time.
